Measurements from patent publication US20220213119A1, “THIENOHETEROCYCLIC DERIVATIVE, PREPARATION METHOD THEREFOR AND MEDICAL USE THEREOF” (Jiangsu Hengrui Medicine Ca, Lid., priority 2019, published 2022).
pIC50: −log10 of the molar value.

Experiments:
Colo205 cells = experiment: In vitro proliferation inhibition test on Colo205 tumor cells (CellTiter-Glo); assay type: cell-based; details: Homo sapiens, COLO 205, 72 h; Colo205 cell proliferation, 3 days of culture, CTG
Protocol: The purpose of this experiment is to test the inhibitory activity of the compounds on the proliferation of Colo205 cells (CCL-222, ATCC) in vitro. The cells were treated with different concentrations of compounds in vitro. After 3 days of culture, the cell proliferation was detected using CTG (CellTiter-Glo® Luminescent Cell Viability Assay, Promega, catalog number: G7573) reagent. The in vitro activity of the compounds was evaluated according to the IC50 value.
In the following, taking the in vitro proliferation inhibition test method of Colo205 cells as an example, the method in the present disclosure for testing the in vitro proliferation inhibitory activity of the compounds of the present disclosure is described. This method is also applicable to, but not limited to, the in vitro proliferation inhibitory activity test on other tumor cells.
Colo205 cells were digested, centrifuged and then resuspended. The single cell suspension was mixed well, and the density of viable cells was adjusted to 5.0×10^4 cells/ml with cell culture medium (RPMI1640+2% FBS), and 95 μl/well was added to a 96-well cell culture plate. Only 100 μl medium was added to the peripheral wells of the 96-well plate. The culture plate was incubated in an incubator for 24 hours (37° C., 5% CO2).
The compound was dissolved in DMSO (dimethyl sulfoxide, Shanghai Titan Scientific Co., Ltd.) and prepared into a stock solution with an initial concentration of 20 mM. The initial concentration of the small molecule compound is 2 mM, and then 4-fold diluted into to 9 points, and the tenth point is DMSO. Another 96-well plate was taken, 90 μl of cell culture medium (RPMI1640+2% FBS) was added to each well, then 10 μl of different concentrations of the test sample was added to each well, the mixture was mixed well, and then 5 μl of different concentrations of the test sample was added to the cell culture plate, and each sample has two duplicate holes. The culture plate was incubated in the incubator for 3 days (37° C., 5% CO2). The 96-well cell culture plate was taken out, 50 μl CTG solution was added to each well, and the plate was incubated for 10 minutes at room temperature. In a microplate reader (BMG labtech, PHERAstar FS), chemiluminescence was measured with the microplate reader.
(§1) The data were processed and analyzed with Microsoft Excel, Graphpad Prism 5.

[1] = Pharmacokinetics assay in mice; assay type: in vivo; details: mouse, po, C57 mice (female), intragastric, 2 mg/kg, plasma
Protocol: Mice were used as the test animal. The drug concentration in plasma at different time points was determined by LC/MS/MS method after administration of compound 3-P2, compound 4-P2, compound 9-P2, compound 10-P2, compound 12 and compound 15. The pharmacokinetic behavior of the compounds of the present disclosure in mice was studied, and the pharmacokinetic characteristics were evaluated.
54 of C57 mice (female) were equally divided into 6 groups, which were purchased from Shanghai Jiesijie Laboratory Animal Co., Ltd., with the animal production license number: SOCK (Shanghai) 2013-0006.
A certain amount of compound was weighted, followed by the addition of 5% volume of DMSO and 5% Tween 80 to dissolve it, then followed by the addition of 90% normal saline to prepare a colorless and clear solution of 0.1 mg/mL.
After an overnight fast, C57 mice were intragastrically administered the test compound at an administration dose of 2 mg/kg and an administration volume of 0.2 ml/10 g.
The mice were intragastrically administered the test compounds. 0.1mL of blood was taken before the administration and at 0.25, 0.5, 1.0, 2.0, 4.0, 6.0, 8.0, 11.0, 24.0 hours after the administration. The blood was placed in a heparinized test tube, and centrifuged at 3500 rpm for 10 minutes. The plasma was separated and stored at −20° C.
The content of the test compound in the plasma of mice after […] administration of the test compound at different concentrations was determined: 25 μl of mouse plasma at each time point after the administration was taken, followed by the addition of 50 μl of the internal standard camptothecin solution (100 ng/mL) and 200 μl of acetonitrile. The resulting solution was vortex-mixed for 5 minutes, and centrifuged for 10 minutes (4000 rpm). 4μl of the supernatant was taken from the plasma samples for LC/MS/MS analysis.

ERK2 = target: T1, ERK2 (Homo sapiens, UniProt P28482); experiment: ERK2 enzyme activity test (ADP-Glo Kinase Assay); assay type: biochemical; details: chemiluminescence
T1 construct: purchased R&D 1230-KS-010
T1 sequence (P28482 whole entry): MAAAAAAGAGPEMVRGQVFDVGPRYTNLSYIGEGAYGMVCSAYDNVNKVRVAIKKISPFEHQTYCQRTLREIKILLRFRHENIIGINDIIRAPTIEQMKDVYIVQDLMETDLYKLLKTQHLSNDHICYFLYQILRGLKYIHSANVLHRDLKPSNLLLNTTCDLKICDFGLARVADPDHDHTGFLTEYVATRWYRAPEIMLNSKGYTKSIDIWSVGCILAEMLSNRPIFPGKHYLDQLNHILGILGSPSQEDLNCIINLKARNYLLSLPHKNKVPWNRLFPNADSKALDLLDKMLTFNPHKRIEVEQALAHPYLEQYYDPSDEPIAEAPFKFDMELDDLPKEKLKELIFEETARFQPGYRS
Protocol: (§2) The purpose of this experiment is to detect the inhibitory ability of the compounds on the ERK2 enzyme activity and evaluate the activity of the compounds in vitro according to IC50. The ADP-Glo™ Kinase Assay Kit was used in this experiment. Under the action of enzyme, the substrate was phosphorylated and ADP was produced at the same time. The ADP-Glo Reagent was added to remove unreacted ATP in the reaction system. The kinase detection reagent was used to detect the ADP produced by the reaction. In the presence of the compound, the inhibition rate of the compound was calculated by measuring the signal value.
Enzyme and substrate preparation: ERK2 (1230-KS-010, R&D) and substrate (Custom peptides, Gill Biochemical) were prepared to be 0.75 ng/μl and 1500 μM in the buffer (40 mM Tris, 20 mM MgCl2, 0.1 mg/mL BSA, 50 μM DTT). The enzyme solution and substrate solution were then prepared into a mixed solution at a volume ratio of 2:1 for later use. ATP was diluted to 500 μM with the buffer. The compounds were dissolved in DMSO (dimethyl sulfoxide, Shanghai Titan Scientific Co., Ltd.) to prepare a stock solution with an initial concentration of 20 mM, and then Bravo was used to prepare solutions of the compounds. Finally, a 3 μL of a mixed solution of enzyme and substrate, and 1 μL of different concentrations of the compound (the initial concentration is 50 μM, 4-fold dilution) were added to each well of the 384-well plate, and the plate was incubated at 30° C. for 10 minutes, and finally 1 μL of 500 μM ATP solution was added to each well, and the plate was incubated at 30° C. for 2 hours. Then 5 μL of ADP-Glo was added, and the plate was incubated at 30° C. for 40 minutes. Then 10 μL of Kinase detection buffer was added, and the plate was incubated at 30° C. for 40 minutes. The 384-well plate was taken out and placed in a microplate reader (BMG labtech, PHERAstar FS), and the chemiluminescence was measured by the microplate reader.
as §1

ERK1 = target: T2, ERK1 (Homo sapiens, UniProt P27361); experiment: ERK1 enzyme activity test (ADP-Glo Kinase Assay); assay type: biochemical; details: chemiluminescence
T2 construct: purchased R&D 1879-KS-010
T2 sequence (P27361 whole entry): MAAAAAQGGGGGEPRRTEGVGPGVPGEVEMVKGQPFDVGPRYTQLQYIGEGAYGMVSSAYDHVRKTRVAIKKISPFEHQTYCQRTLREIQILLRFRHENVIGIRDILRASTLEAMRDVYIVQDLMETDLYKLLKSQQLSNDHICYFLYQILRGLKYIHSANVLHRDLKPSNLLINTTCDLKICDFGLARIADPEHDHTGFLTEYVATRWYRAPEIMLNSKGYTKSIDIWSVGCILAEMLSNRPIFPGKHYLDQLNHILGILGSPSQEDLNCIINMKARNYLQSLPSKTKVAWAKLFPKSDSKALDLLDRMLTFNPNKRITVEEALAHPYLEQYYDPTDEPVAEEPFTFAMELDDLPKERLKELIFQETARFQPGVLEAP
Protocol: as §2, with “ERK1” for “ERK2”
Enzyme and substrate preparation: ERK1 (1879-KS-010, R&D) and substrate (AS-61777, anaspec) were prepared to be 0.75 ng/μl and 100 μM respectively in the buffer. The enzyme solution and substrate solution were then prepared into a mixed solution at a volume ratio of 2:1 for later use. ATP was diluted to 300 μM with the buffer. The compounds were dissolved in DMSO (dimethyl sulfoxide, Shanghai Titan Scientific Co., Ltd.) to prepare a stock solution with an initial concentration of 20 mM, and then Bravo was used to prepare solutions of the compounds. Finally, a 3 μL of a mixed solution of enzyme and substrate, and 1 μL of different concentrations of the compound (the initial concentration is 50 μM, 4-fold dilution) were added to each well of the 384-well plate, and the plate was incubated at 30° C. for 10 minutes, and finally 1 μL of 300 μM ATP solution was added to each well, and the plate was incubated at 30° C. for 2 hours. Then 5 μL of ADP-Glo was added, and the plate was incubated at 30° C. for 40 minutes. Then 10 μL of Kinase detection buffer was added, and the plate was incubated at 30° C. for 40 minutes. The 384-well plate was taken out and placed in a microplate reader (BMG labtech, PHERAstar FS), and the chemiluminescence was measured by the microplate reader.
as §1

Q: With COc1cc(F)cc([C@@H](CO)NC(=O)[C@@H](C)N2CCc3sc(-c4ccnc(Nc5ccnn5C)n4)cc3C2=O)c1 [Example 15, (R)-N-((S)-1-(3-Fluoro-5-methoxyphenyl)-2-hydroxyethyl)-2-(2-(2-((1-methyl-1H-pyrazol-5-yl)amino)pyrimidin-4-yl)-4-oxo-6,7-dihydrothieno[3,2-c]pyridin-5(4H)-yl)propionamide] as the compound, how does the pIC50 (Colo205 cells) read?
A: The pIC50 was 7.31.

Q: And the Vd/F ([1]; read-out: Apparent distribution volume Vz/F)?
A: The Vd/F was 1.76 L/kg.

Q: And the AUC ([1]; read-out: Area under curve AUC)?
A: The AUC was 1830 ng·h/mL.

Q: And the CL/F ([1]; read-out: Clearance CLz/F)?
A: Its CL/F is 18.2 mL/min/kg.

Q: What about the half-life ([1]; read-out: Half Life T1/2 (converted)) of the same compound?
A: Its half-life is 1.11 h.

Q: What about the Cmax ([1]; read-out: Plasma Concentration Cmax) of the same compound?
A: Its Cmax is 1070 ng/mL.

Q: And the MRT ([1]; read-out: Residence Time MRT)?
A: Its MRT is 1.85 h.

Q: And the pIC50 (ERK2)?
A: The pIC50 was 8.52.

Q: What about the pIC50 (ERK1) of the same compound?
A: The pIC50 was 8.40.
